US6946427B2, “Preservative blends containing iodine containing compounds” (Lonza Inc., priority 2001, dated 2005)
Where two headings read alike, the source gives them in different places.

Test system: S. aureus, P. aeruginosa, and E. coli
Assay: Preservative challenge test in anionic protein shampoo inoculated with mixed bacteria; plate counts and Kull synergism value
Format: cell-based

Row | SMILES | S. aureus, P. aeruginosa, and E. coli (cfu/g) Day 0 (anionic protein shampoo, single preservative, printed ">0.5%" by weight, Day 0) | S. aureus, P. aeruginosa, and E. coli (cfu/g) Day 14 (anionic protein shampoo, single preservative, printed ">0.5%" by weight, Day 14) | Qc, concentration of sodium dehydroacetate monohydrate alone required to yield 100% retardation of the bacteria (percent by weight, plate count <10 cfu/g after 14 days) | Qa, concentration of sodium salicylate alone required to yield 100% retardation of the bacteria | S. aureus, P. aeruginosa, and E. coli (cfu/g) Day 0 | S. aureus, P. aeruginosa, and E. coli (cfu/g) Day 14
1 | CC(=O)c1c([O-])cc(C)oc1=O.O.[Na+] [Sodium Dehydroacetate Monohydrate, sodium dehydroacetate monohydrate] | 3.0 × 10^6 cfu/g | 4.0 × 10^3 cfu/g | >0.50% | – | – | –
2 | O=C([O-])c1ccccc1O.[Na+] [Sodium Salicylate, sodium salicylate] | – | – | – | >1.00% | 3.0 × 10^6 cfu/g | 5.0 × 10^2 cfu/g
